{"source": "paper PMC8358040", "about": "“The enzymatic activity of inositol hexakisphosphate kinase controls circulating phosphate in mammals” (Nature Communications, 2021)", "key": {"[1]": {"system": "phosphate excretion in urine", "assay": "Cumulative 32P activity in urine of rats administered NaH2 32PO4", "assay_type": "in vivo, rat", "settings": "lanthanum carbonate 1000 mg/kg 7th dose", "protocol": "(§1) The experiment was performed using 8-week-old SD rats (CLEA Japan, Inc.). Male rats were randomly sorted into different groups based on their body weight (n = 5). […] After a 1 h treatment, NaH2^32PO4 solution (11 μCi/2 mL/rat) was administered orally. Following NaH2^32PO4 administration, rats were placed in metabolic cages, and faeces and urine were collected up to 72 h later. The compound was administered once a day during the 72 h experiment. […] The radioactivity (%) in the faecal and urine samples was calculated by setting the radioactivity of the administered NaH2^32PO4 to 100 %."}, "[2]": {"system": "phosphate excretion in faeces", "assay": "Cumulative 32P activity in faeces of rats administered NaH2 32PO4", "assay_type": "in vivo, rat", "settings": "for Cumulative 32P activity in the faeces: lanthanum carbonate 1000 mg/kg 7th dose", "protocol": "as §1"}, "human IP6K2": {"molecular_target": "T1, human IP6K2 (Homo sapiens, UniProt Q9UHH9)", "T1 sequence (Q9UHH9 1-426)": "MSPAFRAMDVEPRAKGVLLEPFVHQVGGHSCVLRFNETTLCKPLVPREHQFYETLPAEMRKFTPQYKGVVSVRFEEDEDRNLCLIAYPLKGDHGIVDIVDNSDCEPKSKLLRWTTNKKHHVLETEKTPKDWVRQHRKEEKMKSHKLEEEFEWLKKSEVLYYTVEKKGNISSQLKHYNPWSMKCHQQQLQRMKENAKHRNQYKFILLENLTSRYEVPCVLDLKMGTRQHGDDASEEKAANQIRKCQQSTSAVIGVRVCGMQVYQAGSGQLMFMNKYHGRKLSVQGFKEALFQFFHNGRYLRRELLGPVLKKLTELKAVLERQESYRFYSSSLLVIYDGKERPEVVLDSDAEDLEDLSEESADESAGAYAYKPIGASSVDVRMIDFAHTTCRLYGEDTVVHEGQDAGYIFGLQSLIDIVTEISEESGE", "assay": "ADP-Glo kinase assay for IP6K activity", "settings": "read-out: IC50 IP6K2; recombinant human IP6K2 12 nM, ATP 15 μM, InsP6 50 μM, 2 h; mean ± S.D."}, "human IP6K3": {"molecular_target": "T2, human IP6K3 (Homo sapiens, UniProt Q96PC2)", "T2 sequence (Q96PC2 1-410)": "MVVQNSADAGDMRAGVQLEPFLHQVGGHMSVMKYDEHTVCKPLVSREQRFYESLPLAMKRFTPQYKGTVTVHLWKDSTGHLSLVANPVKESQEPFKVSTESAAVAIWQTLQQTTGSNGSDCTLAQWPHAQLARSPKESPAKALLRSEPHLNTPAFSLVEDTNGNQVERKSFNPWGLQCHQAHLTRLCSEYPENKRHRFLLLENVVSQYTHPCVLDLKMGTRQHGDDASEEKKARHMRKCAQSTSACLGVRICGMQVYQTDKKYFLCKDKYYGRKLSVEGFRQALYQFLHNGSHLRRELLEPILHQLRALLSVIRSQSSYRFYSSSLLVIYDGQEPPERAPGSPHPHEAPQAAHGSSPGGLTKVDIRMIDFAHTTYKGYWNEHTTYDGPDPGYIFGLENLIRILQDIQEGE", "assay": "ADP-Glo kinase assay for IP6K activity", "settings": "read-out: IC50 IP6K3; recombinant human IP6K3 […], ATP 15 μM, InsP6 50 μM, 2 h; mean ± S.D."}, "human IP6K1": {"molecular_target": "T3, human IP6K1 (Homo sapiens, UniProt Q92551)", "T3 construct": "made in house; host or cells: Sf9 insect cells (baculovirus)", "T3 sequence (Q92551 whole entry)": "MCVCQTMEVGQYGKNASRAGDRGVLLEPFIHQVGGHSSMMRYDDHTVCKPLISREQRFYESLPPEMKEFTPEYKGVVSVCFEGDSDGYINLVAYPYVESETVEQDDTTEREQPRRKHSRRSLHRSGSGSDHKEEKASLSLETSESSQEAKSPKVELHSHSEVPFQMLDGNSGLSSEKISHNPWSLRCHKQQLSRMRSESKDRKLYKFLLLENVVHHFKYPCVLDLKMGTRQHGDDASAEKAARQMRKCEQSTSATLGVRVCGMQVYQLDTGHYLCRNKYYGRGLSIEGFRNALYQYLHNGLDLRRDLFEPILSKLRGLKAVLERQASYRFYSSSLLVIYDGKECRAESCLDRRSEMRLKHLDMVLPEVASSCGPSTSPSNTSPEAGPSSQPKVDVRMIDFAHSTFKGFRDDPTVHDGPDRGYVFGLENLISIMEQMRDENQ", "assay": "ADP-Glo kinase assay for IP6K activity", "assay_type": "biochemical", "settings": "recombinant human IP6K1 15 nM, ATP 15 μM, InsP6 50 μM, 2 h; mean ± S.D."}, "[3]": {"assay": "Plasma concentration of SC-919 in bilaterally nephrectomized rats", "assay_type": "in vivo, rat", "settings": "bilaterally nephrectomised rats, 0.3 mg/kg oral, 5 h, individual animals (Fig4e)", "protocol": "The experiment was performed with 9-week-old male SD rats (CLEA Japan, Inc.). For bilateral nephrectomy, rats were fasted for 16 h and were subcutaneously injected with buprenorphine (0.05 mg/kg, Otsuka). Thirty minutes later, the rats were anesthetized using isoflurane (3% v/v) and kept on thermal pads at 37 °C with isoflurane (2% v/v). The left and right abdomen and the neck were shaved with a clipper. The surgical site was disinfected with a chlorhexidine-containing antiseptic solution, and the aesthetic state was confirmed by the disappearance of the pain reflex. The skin was incised to expose the kidney, and the renal artery and vein were ligated, which was followed by the isolation of the kidney. […] A sham operation group (n = 6), without nephrectomy, was prepared following the same procedure. After completion of the operation, meloxicam (1 mg/kg) was subcutaneously administered once a day during the study. One day after the operation, anaesthesia was introduced using the procedure described above, and blood was collected from the jugular vein."}, "[4]": {"assay": "Plasma concentration of SC-919 in adenine-treated rats (sub-chronic dose study)"}, "[5]": {"assay": "Plasma concentration of SC-919, single-dose study in normal monkeys", "assay_type": "in vivo, cynomolgus monkey", "settings": "0.3 mg/kg oral, time 1, individual animals (Fig3c)", "protocol": "The experiments were performed at Hamamatsu Pharma Research, Inc. (Hamamatsu, Shizuoka, Japan), which is accredited by the American Association for Accreditation of Laboratory Animal Care. Male cynomolgus monkeys were housed in a room with controlled temperature, humidity, and lighting (12 h light/dark cycle). All monkeys were fed a regular diet (100 g/day, PS-A, Oriental Yeast Co., Ltd.) and had free access to tap water. The experiments were performed when the animals were 3–4 years old. The monkeys were randomized into different groups based on plasma phosphate, body weight (2.6–4.7 kg), and age (n = 6). Corn oil (FUJIFILM Wako) was used as a vehicle. […] Blood was collected from the cephalic vein, saphenous vein, or the femoral vein using a disposable syringe and needle at the indicated timepoints for the measurement of phosphate levels in the plasma. The concentration of the compound in the plasma was measured at the same timepoints (n = 6)."}, "[6]": {"assay": "Plasma concentration of SC-919, single-dose study in normal rats", "assay_type": "in vivo, rat", "protocol": "The experiment was performed with 8-week-old male SD rats (CLEA Japan, Inc.). […] The concentration of the compound in the plasma was measured at the same timepoints (n = 3)."}}, "note": "“And” between values parts separate entries of the source, which are not always exact repeats. Equal entries are not always repeated."}
{"smiles": "O=C([O-])[O-].O=C([O-])[O-].O=C([O-])[O-].[La+3].[La+3]", "note": "[Lanthanum carbonate]", "values": [{"measurement": "Cumulative 32P activity in the urine", "setting": "[1]; 8 h (Fig3g)", "value": "0.04647% and 0.2136% and 1.254% and 0.632% and 0.6628%"}, {"measurement": "Cumulative 32P activity in the urine", "setting": "[1]; 24 h (Fig3g)", "value": "0.658% and 2.356% and 3.626% and 2.673% and 3.04%"}, {"measurement": "Cumulative 32P activity in the urine", "setting": "[1]; 48 h (Fig3g)", "value": "0.8554% and 3.259% and 4.427% and 3.818% and 3.918%"}, {"measurement": "Cumulative 32P activity in the urine", "setting": "[1]; 72 h (Fig3g)", "value": "1.078% and 3.901% and 5.067% and 4.576% and 4.362%"}, {"measurement": "32P activity / phosphate excretion in faeces vs vehicle", "setting": "[2]; in words", "value": "increased"}, {"measurement": "Cumulative 32P activity in the faeces", "setting": "[2]; 48 h (Fig3f)", "value": "53.2569% and 73.3985% and 64.9027% and 66.783% and 73.7253%"}, {"measurement": "Cumulative 32P activity in the faeces", "setting": "[2]; 72 h (Fig3f)", "value": "53.7862% and 74.2778% and 65.7229% and 68.7476% and 74.3353%"}]}
{"smiles": "O=[N+]([O-])c1ccc(CNc2nc(NCc3cccc(C(F)(F)F)c3)nc3nc[nH]c23)cc1", "note": "[TNP, N2-(m-(trifluoromethyl)benzyl) N6-(p-nitrobenzyl)purine]", "values": [{"measurement": "IC50", "setting": "human IP6K2", "value": "850 ± 330", "unit": "nM"}, {"measurement": "IC50", "setting": "human IP6K3", "value": "260 ± 21", "unit": "nM"}, {"measurement": "IC50", "setting": "human IP6K1", "value": "270 ± 100", "unit": "nM"}]}
{"smiles": "O=C(O)c1ccc2c(c1)[C@]1(CC[C@H](Oc3ncc(Cl)cc3Cl)CC1)C(=O)N2", "note": "[SC-919]", "values": [{"measurement": "Concentration of SC-919 (plasma)", "setting": "[3]", "value": "541.632 and 264.446 and 202.061 and 200.786 and 379.989 and 301.737 and 410.34"}, {"measurement": "Concentration of SC-919 (plasma)", "setting": "[4]; 1 mg/kg oral, initial dose, time 2, individual animals (Fig4a), 1 mg/kg", "value": "928.621 and 807.664 and 876.622"}, {"measurement": "Concentration of SC-919 (plasma)", "setting": "[4]; 1 mg/kg, initial dose, time 6 (Fig4a)", "value": "850.061 and 949.996 and 720.403"}, {"measurement": "Concentration of SC-919 (plasma)", "setting": "[4]; 1 mg/kg, seventh dose, time 2 (Fig4c)", "value": "2909.926 and 3195.472 and 1783.864"}, {"measurement": "Concentration of SC-919 (plasma)", "setting": "[4]; 1 mg/kg, seventh dose, time 6 (Fig4c)", "value": "2957.483 and 3182.718 and 1810.036"}, {"measurement": "Concentration of SC-919 (plasma)", "setting": "[4]; 1 mg/kg, seventh dose, time 24 (Fig4c)", "value": "2238.331 and 2202.619 and 1356.448"}, {"measurement": "Concentration of SC-919 (plasma)", "setting": "[4]; 10 mg/kg, initial dose, time 2 (Fig4a)", "value": "5701.725 and 5986.890 and 6856.247"}, {"measurement": "Concentration of SC-919 (plasma)", "setting": "[4]; 10 mg/kg, initial dose, time 6 (Fig4a)", "value": "4444.794 and 6665.965 and 6592.043"}, {"measurement": "Concentration of SC-919 (plasma)", "setting": "[4]; 10 mg/kg, initial dose, time 24 (Fig4a)", "value": "2595.707 and 5143.151 and 4143.702"}, {"measurement": "Concentration of SC-919 (plasma)", "setting": "[4]; 10 mg/kg, seventh dose, time 2 (Fig4c)", "value": "8573.125 and 12574.890 and 8591.283"}, {"measurement": "Concentration of SC-919 (plasma)", "setting": "[4]; 10 mg/kg, seventh dose, time 6 (Fig4c)", "value": "7820.236 and 14817.670 and 9035.189"}, {"measurement": "Concentration of SC-919 in plasma", "setting": "[5]", "value": "40.468 and 0.000 and 7.073 and 24.376 and 2.454 and 13.910"}, {"measurement": "Free SC-919 levels", "setting": "[6]; animal studies using rats and monkeys, reviewer response", "value": "below 0.05 μM"}, {"measurement": "Plasma concentration of SC-919", "setting": "[6]; normal rats, 1 mg/kg oral, time 1, individual animals (Fig3a), 1 mg/kg", "value": "1942.907 and 1856.710 and 1476.530"}, {"measurement": "Plasma concentration of SC-919", "setting": "[6]; normal rats, 1 mg/kg oral, time 2 (Fig3a), 1 mg/kg", "value": "2011.947 and 2121.932 and 1778.126"}, {"measurement": "Plasma concentration of SC-919", "setting": "[6]; normal rats, 1 mg/kg oral, time 4 (Fig3a), 1 mg/kg", "value": "2195.083 and 2444.564 and 1949.961"}, {"measurement": "Plasma concentration of SC-919", "setting": "[6]; normal rats, 1 mg/kg oral, time 8 (Fig3a), 1 mg/kg", "value": "1948.434 and 2469.995 and 1783.145"}, {"measurement": "Plasma concentration of SC-919", "setting": "[6]; normal rats, 3 mg/kg oral, time 1 (Fig3a), 3 mg/kg", "value": "4153.987 and 3662.163 and 4004.199"}, {"measurement": "Plasma concentration of SC-919", "setting": "[6]; normal rats, 3 mg/kg oral, time 2 (Fig3a), 3 mg/kg", "value": "5074.332 and 4401.713 and 4372.837"}, {"measurement": "Plasma concentration of SC-919", "setting": "[6]; normal rats, 3 mg/kg oral, time 4 (Fig3a), 3 mg/kg", "value": "5790.125 and 5489.252 and 5879.739"}, {"measurement": "Plasma concentration of SC-919", "setting": "[6]; normal rats, 3 mg/kg oral, time 8 (Fig3a), 3 mg/kg", "value": "6166.814 and 6363.863 and 4651.047"}, {"measurement": "Plasma concentration of SC-919", "setting": "[6]; normal rats, 10 mg/kg oral, time 1 (Fig3a), 10 mg/kg", "value": "11886.470 and 10328.550 and 8429.354"}, {"measurement": "Plasma concentration of SC-919", "setting": "[6]; normal rats, 10 mg/kg oral, time 2 (Fig3a), 10 mg/kg", "value": "13647.120 and 11744.460 and 11378.370"}, {"measurement": "Plasma concentration of SC-919", "setting": "[6]; normal rats, 10 mg/kg oral, time 4 (Fig3a), 10 mg/kg", "value": "14060.780 and 13051.160 and 10832.720"}, {"measurement": "Plasma concentration of SC-919", "setting": "[6]; normal rats, 10 mg/kg oral, time 8 (Fig3a), 10 mg/kg", "value": "14559.520 and 13008.450 and 10214.420"}, {"measurement": "Plasma concentration of SC-919", "setting": "[6]; normal rats, 10 mg/kg oral, time 24 (Fig3a), 10 mg/kg", "value": "14337.480 and 9820.569 and 8024.378"}, {"measurement": "Plasma SC-919 concentrations", "setting": "[6]; normal rats, oral administration, in words", "value": "increased in a dose-dependent manner"}]}
